system: RBL-2H3 cells; assay: Inhibition of serotonin liberation from IgE-sensitized, antigen-stimulated RBL-2H3 cells ([3H]-serotonin); type: cell-based; settings: Rattus norvegicus; IgE-sensitized RBL-2H3 cells stimulated with specific antigen; [3H]-labeled serotonin
Description: Under the action of an antigen specific to the IgE antibody, RBL-2H3 cells, i.e., a cell line originating in rat cells, not only liberate histamine and serotonin but also produce and liberate cytokines such as TNF" serving as an inflammatory mediator and prostaglandins. In this experimental system, the effects of the compounds of the present invention of inhibiting the liberation of various mediators were examined by using serotonin as an indication.
The cells were labeled with [^3H]-labeled serotonin and, at the same time, sensitized with the IgE antibody. Next, these cells were incubated in the presence of the acridone compounds according to the present invention and then stimulated with the specific antigen. Then the serotonin liberation inhibitory activity of each acridone compound was calculated from the amount of the [^3H]-labeled serotonin thus liberated into the medium due to the above-mentioned stimulation and the amount of the [^3H]-labeled serotonin liberated into the medium by the same experimental procedure as the one described above but adding no acridone compound of the present invention.

Compound	IC50
Cc1ccc2c(=O)c3ccccc3n(Cc3cccc(CNCc4ccccc4)n3)c2c1C [Compound 128]	1 µM
Cc1ccc2c(=O)c3ccccc3n(CCCNCc3ccccc3Br)c2c1C [Compound 44]	5 µM
Cc1ccc2c(=O)c3ccccc3n(CCCN(CCC(N)=O)Cc3ccccc3)c2c1C [Compound 76]	4 µM
Cc1ccc2c(=O)c3c(CC(=O)O)cccc3n(CCCN(CCO)Cc3ccccc3)c2c1C [Compound 109]	3 µM
CNS(=O)(=O)c1ccc(CNCCCn2c3ccccc3c(=O)c3ccc(C)c(C)c32)cc1 [Compound 69]	7 µM
Cc1ccc2c(=S)c3ccccc3n(CCCN)c2c1C [Compound 130]	10 µM
Cc1ccc2c(=O)c3c(C(C)CC(=O)O)cccc3n(CCCN)c2c1C (stereo not drawn) [Compound 18]	10 µM
Cc1ccc2c(=O)c3ccccc3n(CCCN(CCO)Cc3ccccc3)c2c1C [Compound 77]	1 µM
Cc1ccc2c(=O)c3ccccc3n(CCCNOCc3ccccc3)c2c1C [Compound 72]	2 µM
Cc1ccc2c(=O)c3ccccc3n(CCCNCc3ccc(Br)cc3)c2c1C [Compound 66]	5 µM
Cc1cccc(CNCCCn2c3ccccc3c(=O)c3ccc(C)c(C)c32)c1 [Compound 33]	2 µM
Cc1ccc2c(=O)c3ccccc3n(CCCNCc3cccc(C#N)c3)c2c1C [Compound 35]	3 µM
COc1ccc2c(=O)c3ccc(C)c(C)c3n(CCCNCc3ccc(C)cc3)c2c1 [Compound 87]	2 µM
Cc1ccc2c(=O)c3ccccc3n(CCCN(CCC#N)Cc3ccccc3)c2c1C [Compound 75]	3 µM
Cc1ccc2c(=O)c3ccccc3n(CCCNCc3ccccc3Cl)c2c1C [Compound 63]	10 µM
Cc1ccc2c(=O)c3ccccc3n(CCCNCc3c(Cl)cccc3Cl)c2c1C [Compound 48]	1 µM
Cc1ccc2c(=O)c3c(CC(=O)O)cccc3n(CCCN)c2c1C [Compound 14]	10 µM
Cc1ccc2c(=O)c3c(CC(=O)O)cccc3n(CCCNCc3ccccc3Cl)c2c1C [Compound 105]	5 µM
Cc1ccc2c(=O)c3c(C(C)C(=O)O)cccc3n(CCCNCc3ccc(Cl)c(Cl)c3)c2c1C (stereo not drawn) [Compound 142]	1 µM
Cc1ccc2c(=O)c3c(CC(=O)O)cccc3n(CCCNCc3ccc(Cl)c(Cl)c3O)c2c1C [Compound 23]	8 µM

Compound	IC50
Cc1ccc2c(=O)c3ccccc3n(Cc3ccccc3CNCc3ncc[nH]3)c2c1C [Compound 127]	5 µM
Cc1cc(CN(C)CCCn2c3ccccc3c(=O)c3ccc(C)c(C)c32)cc(C)c1O [Compound 79]	7 µM
Cc1ccc2c(=O)c3ccccc3n(CCCNCc3cccc(Br)c3)c2c1C [Compound 45]	2 µM
Cc1ccc2c(=O)c3c(CC(=O)O)cccc3n(CCCNCc3ccc(F)c(F)c3)c2c1C [Compound 103]	3 µM
Cc1ccc2c(=O)c3c(CC(=O)O)cccc3n(CCCNCc3cccc(F)c3)c2c1C [Compound 108]	5 µM
Cc1ccc2c(=O)c3c(CC(=O)O)cccc3n(CCCN(C)Cc3ccc(Cl)c(O)c3Cl)c2c1C [Compound 25]	6 µM
Cc1ccc2c(=O)c3c(CC(=O)O)cccc3n(CCCNCc3ccccc3C(F)(F)F)c2c1C [Compound 116]	3 µM
Cc1ccc(CN(C)CCCn2c3cccc(CC(=O)O)c3c(=O)c3ccc(C)c(C)c32)c(C)c1 [Compound 27]	10 µM
Cc1cc(CNCCCn2c3ccccc3c(=O)c3ccc(C)c(C)c32)ccc1O [Compound 46]	4 µM
Cc1ccc2c(=O)c3ccccc3n(CCCNCc3ccccc3F)c2c1C [Compound 41]	3 µM
Cc1ccc2c(=O)c3c(CC(=O)O)cccc3n(CCCNCc3ccc(Cl)cc3O)c2c1C [Compound 30]	2 µM
COC(=O)CCc1cccc2c1c(=O)c1ccc(C)c(C)c1n2CCCNCc1ccccc1 [Compound 22]	3 µM
COc1cccc2c1c(=O)c1ccc(C)c(C)c1n2CCCNCc1ccc(C)cc1 [Compound 88]	2 µM
Cc1ccc2c(=O)c3ccccc3n(Cc3ccc(CNCc4ccco4)cc3)c2c1C [Compound 125]	10 µM
Cc1ccc(CNCCCn2c3cc(F)ccc3c(=O)c3ccc(C)c(C)c32)cc1 [Compound 86]	3 µM
CCN(CCCn1c2cccc(CC(=O)O)c2c(=O)c2ccc(C)c(C)c21)Cc1ccccc1 [Compound 91]	8 µM
Cc1ccc2c(=O)c3c(CC(=O)O)cccc3n(CCCNCc3ccco3)c2c1C [Compound 12]	0.5 µM
Cc1ccc2c(=O)c3c(CC(=O)O)cccc3n(CCCNCc3ccc(Cl)c(O)c3Cl)c2c1C [Compound 24]	8 µM
Cc1ccc2c(=O)c3ccccc3n(Cc3ccc(CN)cc3)c2c1C [Compound 119]	4 µM
Cc1ccc2c(=O)c3c(C(C)CC(=O)O)cccc3n(CCCNCc3ccc(Cl)cc3Cl)c2c1C (stereo not drawn) [Compound 9]	10 µM

Compound	IC50
Cc1ccc2c(=O)c3ccccc3n(CCCNCc3ccc(F)cc3)c2c1C [Compound 43]	2 µM
Cc1ccc2c(=O)c3c(CC(=O)O)cccc3n(CCCN(C)CCc3ccccc3)c2c1C [Compound 113]	8 µM
Cc1ccc2c(=O)c3ccccc3n(CC=CCNCc3ccccc3)c2c1C [Compound 129]	8 µM
Cc1ccc2c(=O)c3c(CC(=O)O)cccc3n(CCCNCc3ccc(O)cc3)c2c1C [Compound 31]	1 µM
Cc1ccc2c(=O)c3ccccc3n(CCCNCc3ccc(C(N)=O)cc3)c2c1C [Compound 55]	10 µM
Cc1ccc2c(=O)c3c(CC(=O)O)cccc3n(CCCNCc3ccccc3F)c2c1C [Compound 107]	6 µM
Cc1ccc2c(=S)c3ccccc3n(CCCNCc3ccccc3)c2c1C [Compound 131]	10 µM
Cc1ccc(CNCCCn2c3ccccc3c(=O)c3ccc(C)c(C)c32)cc1 [Compound 62]	1 µM
Cc1ccc2c(=O)c3ccccc3n(Cc3ccc(CNCc4ccccc4)o3)c2c1C [Compound 133]	2 µM
Cc1ccc2c(=O)c3c(CC(=O)O)cccc3n(CCCNCc3ccc(C(F)(F)F)cc3C(F)(F)F)c2c1C [Compound 29]	8 µM
Cc1ccc2c(=O)c3c(CC(=O)O)cccc3n(CCCNCc3ccc(F)cc3F)c2c1C [Compound 100]	10 µM
Cc1ccc2c(=O)c3ccccc3n(CCCNCc3ccc(S(=O)(=O)N(C)C)cc3)c2c1C [Compound 70]	8 µM
Cc1ccc2c(=O)c3ccccc3n(CCCNCc3cccc(C(F)(F)F)c3)c2c1C [Compound 38]	2 µM
Cc1ccc2c(=O)c3ccccc3n(Cc3ccccc3CN)c2c1C [Compound 117]	10 µM
Cc1ccc2c(=O)c3c(CCC(=O)O)cccc3n(CCCNCc3ccccc3)c2c1C [Compound 5]	3 µM
Cc1ccc(CNCCCn2c3cccc(CC(=O)O)c3c(=O)c3ccc(C)c(C)c32)c(C)c1 [Compound 26]	10 µM
COc1cccc(NCCCn2c3ccccc3c(=O)c3ccc(C)c(C)c32)c1 [Compound 81]	10 µM
Cc1ccc2c(=O)c3c(CC(=O)O)cccc3n(CCCNCc3ccc(F)cc3)c2c1C [Compound 104]	5 µM
Cc1ccc2c(=O)c3c(C(C)C(=O)O)cccc3n(CCCN(C)Cc3ccccc3)c2c1C (stereo not drawn) [Compound 140]	4 µM
Cc1ccc2c(=O)c3ccccc3n(CCCN(C3CCCCC3)C3CCCCC3)c2c1C [Compound 83]	5 µM

Source: patent publication EP0857721A1, “ACRIDONE COMPOUNDS” (Eisai Co., Ltd., priority 1995, dated 1997)
